Test results from patent US20150272951A1, “COMPOUNDS FOR THE TREATMENT OF LYSOSOMAL STORAGE DISEASES” (The Hospital for Sick Children, priority 2010, published 2015).
Read-outs that look alike come from different tables or passages of the source.

Experiments:
Hex A = Hex A (Homo sapiens, UniProt P06865+P07686); experiment: Hex A inhibition (IC50 from dose response curves of Hex A residual activity); settings: for pKHA: pH dependence of Hex A inhibition;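 as to all read-outs here: remaining Hex A enzyme activity recorded across rising inhibitor doses, with dose response curves run at pH 6.5 and again at pH 4.5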
Hex A, sequence (P06865 89-529): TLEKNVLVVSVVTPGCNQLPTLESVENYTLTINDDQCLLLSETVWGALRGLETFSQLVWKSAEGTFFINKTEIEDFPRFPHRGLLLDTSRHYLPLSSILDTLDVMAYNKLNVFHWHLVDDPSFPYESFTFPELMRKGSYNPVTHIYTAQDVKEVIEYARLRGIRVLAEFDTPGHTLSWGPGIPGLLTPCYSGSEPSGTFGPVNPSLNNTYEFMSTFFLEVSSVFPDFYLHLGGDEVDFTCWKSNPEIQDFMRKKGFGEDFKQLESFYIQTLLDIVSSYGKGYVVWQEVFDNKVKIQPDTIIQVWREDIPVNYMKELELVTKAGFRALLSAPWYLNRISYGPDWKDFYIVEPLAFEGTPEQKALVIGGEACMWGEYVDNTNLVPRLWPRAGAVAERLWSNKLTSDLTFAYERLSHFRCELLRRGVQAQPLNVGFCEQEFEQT
Hex A, sequence (P07686 122-311 limits assumed): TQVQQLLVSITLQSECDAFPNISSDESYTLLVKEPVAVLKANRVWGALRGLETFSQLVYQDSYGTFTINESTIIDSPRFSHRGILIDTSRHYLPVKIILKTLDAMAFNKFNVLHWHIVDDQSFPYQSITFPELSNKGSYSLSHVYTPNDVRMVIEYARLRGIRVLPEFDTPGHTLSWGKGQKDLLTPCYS
Hex A, sequence (P07686 315-556 limits assumed): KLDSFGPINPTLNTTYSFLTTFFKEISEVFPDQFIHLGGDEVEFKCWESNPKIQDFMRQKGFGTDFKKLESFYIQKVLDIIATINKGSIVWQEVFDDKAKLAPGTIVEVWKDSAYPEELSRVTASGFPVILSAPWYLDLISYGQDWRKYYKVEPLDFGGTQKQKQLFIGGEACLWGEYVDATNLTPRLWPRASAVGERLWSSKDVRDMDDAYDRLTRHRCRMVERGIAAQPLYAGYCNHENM
Procedure: The NINDS library was screened for compounds having Hex A inhibitory activity.
(§1) Experiments were performed using 1.6 mM 4-methylumbelliferone-b-N-Acetylglucosamine substrate.

mutant Hex A [1] = molecular target: mutant Hex A (Homo sapiens, UniProt P06865+P07686); type: cell-based; settings: for EC50: Hex A rescue, determined from graphs of FIGS. 5-7; for Max Increase: maximum increase in Hex A activity relative to untreated cells (=1); for Range of Increase: range of increase in Hex A activity
Procedure: Using the graphs of FIGS. 5-7, the EC50 values for Hex A rescue were determined as well as the maximum increase and range of increase in Hex A activity. These values are tabulated in Table 2, together with the IC50 values for Hex A inhibition that were determined in Example 3.

mutant Hex A [2] = type: cell-based, human
Procedure: The cells were harvested and assayed for Hex A using a fluorescent artificial substrate, MUGS. The increase in Hex A activity relative to that of untreated cells is given, i.e. no change in activity=1;
Cells were grown in the indicated concentrations of either drug for five days. The cells were harvested and assayed for Hex A activity using a fluorescent artificial substrate, MUGS. The increase in Hex A activity relative to that of untreated cells is given, i.e. no change in activity=1.
Two of the other cultures were un-genotyped infantile Tay-Sachs disease fibroblast cell lines. […] The increase in Hex A activity relative to that of untreated cells is given, i.e., no change in activity=1. The decrease in Hex A activity at high concentrations represents cell toxicity.

patient fibroblasts = experiment: Cell viability by Alamar Blue; type: cell-based, human; settings: concentrations greater than 100 μM, five days of treatment
HexB = HexB (Homo sapiens, UniProt P07686); experiment: HexB inhibition (purified isozyme); type: biochemical
HexB, sequence (P07686 122-311 limits assumed): as the sequence (P07686 122-311 limits assumed) above
HexB, sequence (P07686 315-556 limits assumed): as the sequence (P07686 315-556 limits assumed) above
Procedure: as §1

malaria = settings: cited from earlier work
[3] = molecular target: T1, purified recombinant human DHFR (Homo sapiens, UniProt P00374); experiment: DHFR inhibition; type: biochemical; settings: FIG. 13B
T1 sequence (P00374 1-187): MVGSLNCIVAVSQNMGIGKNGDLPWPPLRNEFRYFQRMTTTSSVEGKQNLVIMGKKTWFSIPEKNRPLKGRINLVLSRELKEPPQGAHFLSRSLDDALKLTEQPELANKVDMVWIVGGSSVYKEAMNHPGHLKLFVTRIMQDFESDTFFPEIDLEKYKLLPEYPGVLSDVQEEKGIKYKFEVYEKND

lysosomal HexA = experiment: Intracellular hydrolysis of fluorescent GM2 ganglioside derivative in patient cells; type: cell-based, human; settings: PYRdCl 11 μg/ml vs PYR 33 μg/ml, 10 days
Procedure: Prior to evaluation of the GM2 hydrolytic activity of lysosomal HexA, cells were treated with Conduritol b-epoxide (Glucocerebrosidase inhibitor) to limit hydrolysis beyond (GlcCer) loaded with a fluorescent derivative of GM2 ganglioside for 8 hrs. Neutral glycolipids and gangliosides were separated by Folch extraction of the treated cells. Gangliosides and glycolipids were resolved by High Performance Thin Layer Chromatography and visualized by Fluorescence Imaging (Storm Imager, Molecular Devices).

HexA wt = molecular target: T2, HexA wt (Homo sapiens, UniProt P06865+P07686); experiment: Inhibition of HexA enriched from normal fibroblasts; type: biochemical; settings: pH 4.5
T2 construct: endogenous in cells; host or cells: normal fibroblasts (HexA isozyme enriched from them)
T2 sequence (P06865 89-529): as the sequence (P06865 89-529) above
T2 sequence (P07686 122-311 limits assumed): as the sequence (P07686 122-311 limits assumed) above
T2 sequence (P07686 315-556 limits assumed): as the sequence (P07686 315-556 limits assumed) above
Procedure: as §1

[4] = IC50 (μM ± Err), in brackets, brackets: IC50 extrapolated from an incomplete dose response curve
[5] = IC50 (μM ± Err), Hex A inhibition, values determined in Example 3, pH not given
[6] = IC50 (μM), without error, pH not stated
[7] = read-out: IC50 (μM ± Err), Hex A inhibition, values determined in Example 3, pH not given
[8] = IC50 (μM), compounds with bracketed IC50, extrapolated from an incomplete dose response curve

IC50 (Hex A; [4]) [µM] | SMILES | IC50 (Hex A; [5]) [µM] | IC50 (Hex A; [6]) [µM] | EC50 (mutant Hex A [1]) [µM] | Max Increase (mutant Hex A [1]) | Range of Increase (mutant Hex A [1]) | also measured
10400 | Cc1cccc(-c2c(C)nc(N)nc2N)c1 [ksh3-14d] | – | – | – | – | – | –
– | CCCCc1nc(N)nc(N)c1-c1ccc(C(F)(F)F)cc1 [zjm1-115] | 142 ± 3 | 142 | – | – | – | –
– | CCc1nc(N)nc(N)c1-c1cccs1 [zjm7-67] | 31 ± 1 | 30.8 | 6.46 | 1.7 | 2 | –
– | CCc1nc(N)nc(N)c1-c1cccc(C)c1 [ksh3-19d] | – | 34.5 | 6.67 | 2.1 | 5 | IC50 (Hex A; [7]): 34 ± 1 µM
– | CCc1nc(N)nc(N)c1-c1ccc(C(F)(F)F)cc1 [jts16] | 18 ± 1 | 17.7 | 5.14 | 1.3 | 4 | –
923 | Cc1nc(N)nc(N)c1-c1ccc(F)cc1 [ksh3-14a] | – | – | – | – | – | IC50 (Hex A; [8]): 923 µM
936 | CCc1ncnc(N)c1-c1ccc(C(F)(F)F)cc1 [vsa6] | – | – | – | – | – | IC50 (Hex A; [8]): 936 µM
1230 | Cc1cc(C)cc(-c2c(C)nc(N)nc2N)c1 [ksh3-14e] | – | – | – | – | – | IC50 (Hex A; [8]): 1230 µM
– | CC1=N[C@@H]2[C@@H](O)[C@H](O)[C@@H](CO)O[C@@H]2S1 [NGT, NAG-thiazoline, reference compound] | – | – | – | – | – | pKHA (Hex A): 4.5
– | CC(C)c1nc(N)nc(N)c1-c1ccc(Cl)cc1 [jts20] | 406 ± 2 | 406 | – | – | – | –
– | CCCc1nc(N)nc(N)c1-c1cccc(C)c1 [ksh3.33d] | 50 ± 1 | 50.4 | 14.8 | 1.7 | 3 | –
– | CCCc1nc(N)nc(N)c1-c1ccccc1 [ksh3-29] | 37 ± 1 | 36.6 | 12.1 | 1.6 | 3 | –
– | CCc1nc(N)nc(N)c1-c1ccc(C)cc1 [ksh3-19b] | 72 ± 2 | 72.3 | 4.44 | 1.5 | 4 | –
– | Cc1nc(N)nc(N)c1-c1ccc(Cl)cc1 [jts22] | 556 ± 1 | 556 | – | – | – | –
– | CCCc1nc(N)nc(N)c1-c1ccc(C)cc1 [zjm1-137] | 28 ± 1 | 28.4 | 4.6 | 2.0 | 3 | –
2110 | CCc1ncncc1-c1ccc(C(F)(F)F)cc1 [vsa4] | – | – | – | – | – | –
– | CCCc1nc(N)nc(N)c1-c1ccc(OC)cc1 [zjm1-139] | 28 ± 1 | 28.2 | 14.2 | 2.3 | 4 | –
1720 | Cc1ccc(-c2c(C)nc(N)nc2N)cc1 [ksh3-14b] | – | – | – | – | – | IC50 (Hex A; [8]): 1720 µM
– | CCc1nc(N)nc(N)c1-c1ccccc1C [ksh3-19c] | 44 ± 1 | 43.7 | 4.95 | 1.9 | 4 | –

IC50 (Hex A; [4]) [µM] | SMILES | IC50 (Hex A; [5]) [µM] | IC50 (Hex A; [6]) [µM] | EC50 (mutant Hex A [1]) [µM] | Max Increase (mutant Hex A [1]) | Range of Increase (mutant Hex A [1]) | also measured
– | CCc1nc(N)nc(N)c1-c1ccc(Cl)cc1 [PYR, Pyrimethamine, reference compound] | – | – | – | 2.0 | 4 | Max Increase (mutant Hex A [1]; listed as PYR (vsa7)): 1.4; pKHA (Hex A): 6.5; cell toxicity (mutant Hex A [2]; 33.33 μg/ml, five days): cell death was occurring; rescue of mutant Hex A activity compared with NGT (mutant Hex A [2]; fibroblasts expressing αG269S, four days (FIG. 1)): better able to rescue mutant Hex A activity; reduction of viability compared to PYRdCl treated patient fibroblasts (patient fibroblasts): more than 20%
– | CCCc1nc(N)nc(N)c1-c1ccc(F)cc1 [ksh3-33a] | 39 ± 1 | 39.1 | 12.5 | 1.4 | 4 | –
– | CCCc1nc(N)nc(N)c1-c1ccc(C(F)(F)F)cc1 [zjm1-141] | 16 ± 1 | 15.9 | 11.6 | 1.5 | 3 | –
– | CCc1nc(N)nc(N)c1-c1ccsc1 [zjm7-69] | 55 ± 1 | 55 | 10 | 1.9 | 4 | –
870 | CCCCc1nc(N)nc(N)c1-c1ccc(OC)cc1 [zjm1-113] | – | – | – | – | – | IC50 (Hex A; [8]): 870 µM
1230 | Cc1nc(N)nc(N)c1-c1ccccc1 [ksh3-05] | – | – | – | – | – | IC50 (Hex A; [8]): 1230 µM
1360 | CCCCc1nc(N)nc(N)c1-c1ccc(Cl)cc1 [zjm1-91] | – | – | – | – | – | IC50 (Hex A; [8]): 1360 µM
– | CCc1nc(N)nc(N)c1-c1cc(C)cc(C)c1 [ksh3-19e] | – | – | 16.4 | 2.2 | 3 | IC50 (Hex A; [7]): 47 ± 1 µM; IC50 (Hex A; without error, pH not stated): 47.4 µM
3830 | Cc1ccc(-c2c(C)nc(N)nc2N)cc1 [ksh3-14c] | – | – | – | – | – | IC50 (Hex A; [8]): 3830 µM
– | CCCc1nc(N)nc(N)c1-c1ccc(Cl)cc1 [zjm1-135] | – | – | 7.14 | 1.4 | 3 | IC50 (Hex A; [7]): 18 ± 1 µM; IC50 (Hex A; without error, pH not stated): 17.9 µM
– | CCc1nc(N)nc(N)c1-c1ccc(C(F)(F)F)cc1 [vsa5] | – | 14.7 | 2.24 | 1.4 | 3 | IC50 (Hex A; [7]): 15 ± 1 µM
– | NCc1nc(N)nc(N)c1-c1ccc(Cl)cc1 [zjm7-27] | 176 ± 1 | 176 | – | 1.4 | 1 | –
– | CCc1nc(N)nc(N)c1-c1ccc(F)cc1 [ksh3-17] | 50 ± 1 | 50.4 | 8.24 | 1.8 | 4 | –
825 | CCCc1nc(N)nc(N)c1-c1ccccc1C [ksh3-33c] | – | – | – | – | – | –
– | CCCc1nc(N)nc(N)c1-c1cc(C)cc(C)c1 [ksh3.33e] | 24 ± 1 | 24.4 | – | 1.6 | 1 | –
– | CCc1nc(N)nc(N)c1-c1ccccc1 [ksh3-10] | – | – | 38.4 | 2.6 | 4 | IC50 (HexB; pH 4.5, 1.6 mM substrate, read-out: IC50 HexB pH 4.5): 38 µM; IC50 (HexB; pH 7, read-out: IC50 HexB pH 7): 15 µM; fold increase in Hex A activity (rescue of mutant Hex A) (mutant Hex A [1]; concentration of 100 μM (FIGS. 6 and 7)): ~3 fold; activity against malaria relative to PYR (malaria): inferior activity against malaria relative to PYR; IC50 (Hex A; [7]): 32 ± 1 µM; IC50 (Hex A; read-out: IC50 HexA pH 7, purified HexA, pH 7): 11 µM; IC50 (Hex A; without error, pH not stated): 32 µM; fold increase in Hex A activity (mutant Hex A [2]; 33.33 μg/ml, five days, relative to untreated cells (FIG. 5)): 7 fold; Hex A rescue response compared with PYR (mutant Hex A [2]; all Tay-Sachs cell lines tested (FIG. 5)): as good or a better than PYR; IC50 [3]: 0.2 µM; intracellular hydrolysis of fluorescent GM2 ganglioside derivative (lysosomal HexA): greater intracellular hydrolysis; IC50 (HexA wt): 27 µM
967 | CCC1=C(c2ccc(Cl)cc2)C(N)=NCN1 [vsa8] | – | – | – | – | – | IC50 (Hex A; [8]): 967 µM
600 | CCCCc1nc(N)nc(N)c1-c1ccc(C)cc1 [zjm1-111] | – | – | – | – | – | IC50 (Hex A; [8]): 600 µM
400 | CCc1[nH]c(=O)nc(N)c1-c1ccc(Cl)cc1 [vsa9] | – | – | – | – | – | –
